Data from ChEMBL document CHEMBL5252521, “Discovery and development of kibdelomycin, a new class of broad-spectrum antibiotics targeting the clinically proven bacterial type II topoisomerase” (Bioorg Med Chem, 2016).
In brackets after ≈: the same amount, converted by molar mass.

What was measured:
[1] = test system: Escherichia coli; test: Antibacterial activity against wild type Escherichia coli; assay type: functional
[2] = target: DNA gyrase (Escherichia coli, UniProt P0AES4+P0AES6); test: Inhibition of Escherichia coli DNA gyrase supercoiling activity; assay type: protein-complex assay
[3] = test system: Staphylococcus aureus; test: Antibacterial activity against wild type Staphylococcus aureus; assay type: functional
[4] = Inhibition of Escherichia coli DNA topoisomerase 4 decatenation activity
[5] = target: DNA gyrase (Staphylococcus aureus, UniProt P0A0K8+P20831); test: Inhibition of Staphylococcus aureus DNA gyrase supercoiling activity; assay type: protein-complex assay
Chain of DNA gyrase (Staphylococcus aureus, UniProt P0A0K8+P20831) (P0A0K8 whole entry): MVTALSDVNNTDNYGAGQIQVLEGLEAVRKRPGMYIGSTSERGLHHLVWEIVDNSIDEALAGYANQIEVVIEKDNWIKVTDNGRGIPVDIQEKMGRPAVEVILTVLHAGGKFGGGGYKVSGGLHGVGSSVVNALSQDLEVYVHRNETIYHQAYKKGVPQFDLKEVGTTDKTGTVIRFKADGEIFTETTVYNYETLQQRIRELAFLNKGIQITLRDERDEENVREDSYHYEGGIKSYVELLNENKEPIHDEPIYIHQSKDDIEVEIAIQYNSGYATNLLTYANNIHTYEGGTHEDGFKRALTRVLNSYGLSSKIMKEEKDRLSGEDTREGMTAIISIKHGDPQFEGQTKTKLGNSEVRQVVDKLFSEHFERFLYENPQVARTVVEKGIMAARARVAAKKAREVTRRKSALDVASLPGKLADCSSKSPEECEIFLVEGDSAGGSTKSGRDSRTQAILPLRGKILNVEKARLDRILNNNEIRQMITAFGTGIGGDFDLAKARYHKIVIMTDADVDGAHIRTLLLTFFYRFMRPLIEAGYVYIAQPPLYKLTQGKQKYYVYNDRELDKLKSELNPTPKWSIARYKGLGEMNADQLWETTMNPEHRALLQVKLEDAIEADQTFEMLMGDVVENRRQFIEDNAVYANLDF
Chain of DNA gyrase (Staphylococcus aureus, UniProt P0A0K8+P20831) (P20831 whole entry): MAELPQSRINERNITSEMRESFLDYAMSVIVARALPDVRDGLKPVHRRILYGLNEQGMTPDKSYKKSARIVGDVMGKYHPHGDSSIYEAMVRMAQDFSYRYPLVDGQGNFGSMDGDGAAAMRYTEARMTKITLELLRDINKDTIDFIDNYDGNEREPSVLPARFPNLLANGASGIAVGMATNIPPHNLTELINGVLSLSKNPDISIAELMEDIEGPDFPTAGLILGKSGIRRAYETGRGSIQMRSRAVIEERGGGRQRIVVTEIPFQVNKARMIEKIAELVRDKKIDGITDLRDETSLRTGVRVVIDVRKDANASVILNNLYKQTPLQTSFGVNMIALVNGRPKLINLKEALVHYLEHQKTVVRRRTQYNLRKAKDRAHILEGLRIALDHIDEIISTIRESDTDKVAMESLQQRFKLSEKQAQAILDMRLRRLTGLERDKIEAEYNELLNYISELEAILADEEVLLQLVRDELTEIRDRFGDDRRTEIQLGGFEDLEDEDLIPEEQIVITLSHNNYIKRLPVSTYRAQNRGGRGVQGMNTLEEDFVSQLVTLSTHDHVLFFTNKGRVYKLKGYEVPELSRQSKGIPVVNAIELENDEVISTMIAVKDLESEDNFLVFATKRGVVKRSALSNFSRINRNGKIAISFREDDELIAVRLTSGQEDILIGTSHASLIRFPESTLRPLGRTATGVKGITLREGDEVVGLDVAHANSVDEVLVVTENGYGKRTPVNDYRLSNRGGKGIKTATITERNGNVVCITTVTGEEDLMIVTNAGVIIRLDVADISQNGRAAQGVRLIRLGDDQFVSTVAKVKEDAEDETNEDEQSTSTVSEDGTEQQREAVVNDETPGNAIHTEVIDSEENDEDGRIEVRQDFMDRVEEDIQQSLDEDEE

[6] = test system: Streptococcus pneumoniae; test: Antibacterial activity against wild type Streptococcus pneumoniae in presence of 2.5% lysed horse blood; assay type: functional
[7] = target: Topoisomerase IV (Staphylococcus aureus, UniProt P0C1S7+P0C1U9); test: Inhibition of Staphylococcus aureus DNA topoisomerase 4 decatenation activity; assay type: protein-complex assay
Chain of Topoisomerase IV (P0C1U9 whole entry): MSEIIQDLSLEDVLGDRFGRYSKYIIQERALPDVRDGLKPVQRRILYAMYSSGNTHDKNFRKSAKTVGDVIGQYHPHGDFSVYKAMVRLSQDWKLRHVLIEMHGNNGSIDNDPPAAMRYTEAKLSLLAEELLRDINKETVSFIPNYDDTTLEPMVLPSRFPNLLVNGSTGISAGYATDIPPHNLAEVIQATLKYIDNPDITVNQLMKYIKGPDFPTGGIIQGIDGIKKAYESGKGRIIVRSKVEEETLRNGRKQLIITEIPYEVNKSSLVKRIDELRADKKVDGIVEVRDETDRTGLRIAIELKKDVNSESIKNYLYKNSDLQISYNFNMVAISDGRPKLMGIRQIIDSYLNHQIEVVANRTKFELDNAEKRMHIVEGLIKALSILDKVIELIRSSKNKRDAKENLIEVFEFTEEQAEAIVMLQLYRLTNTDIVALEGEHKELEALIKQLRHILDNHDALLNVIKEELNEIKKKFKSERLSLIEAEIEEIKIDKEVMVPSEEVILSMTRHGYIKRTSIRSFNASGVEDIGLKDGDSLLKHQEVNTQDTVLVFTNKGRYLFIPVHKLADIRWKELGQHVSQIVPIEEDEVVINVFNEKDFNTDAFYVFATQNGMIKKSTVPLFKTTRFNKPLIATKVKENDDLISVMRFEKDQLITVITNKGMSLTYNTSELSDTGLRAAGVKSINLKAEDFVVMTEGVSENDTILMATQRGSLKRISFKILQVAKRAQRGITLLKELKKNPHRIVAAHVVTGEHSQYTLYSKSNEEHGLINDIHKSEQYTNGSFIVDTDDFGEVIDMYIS
Chain of Topoisomerase IV (P0C1S7 whole entry): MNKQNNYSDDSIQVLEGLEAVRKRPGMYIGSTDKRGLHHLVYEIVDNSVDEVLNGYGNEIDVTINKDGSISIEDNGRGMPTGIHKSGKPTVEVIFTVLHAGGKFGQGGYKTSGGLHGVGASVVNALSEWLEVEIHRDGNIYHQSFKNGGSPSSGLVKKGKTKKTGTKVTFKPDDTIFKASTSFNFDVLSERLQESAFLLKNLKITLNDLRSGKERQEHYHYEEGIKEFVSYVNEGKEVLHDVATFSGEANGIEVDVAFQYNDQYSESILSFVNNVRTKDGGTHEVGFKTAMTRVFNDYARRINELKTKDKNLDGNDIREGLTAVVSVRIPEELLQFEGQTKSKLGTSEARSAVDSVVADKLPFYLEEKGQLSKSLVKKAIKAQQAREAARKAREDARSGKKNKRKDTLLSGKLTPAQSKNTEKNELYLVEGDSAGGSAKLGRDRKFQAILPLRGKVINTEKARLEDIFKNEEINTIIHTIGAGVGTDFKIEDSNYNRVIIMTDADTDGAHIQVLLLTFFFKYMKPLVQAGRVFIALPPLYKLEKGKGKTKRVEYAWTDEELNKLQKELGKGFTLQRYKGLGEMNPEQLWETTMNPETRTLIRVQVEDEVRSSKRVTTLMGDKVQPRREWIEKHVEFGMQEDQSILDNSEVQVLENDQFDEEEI

[8] = test system: Pseudomonas aeruginosa; test: Antibacterial activity against wild type Pseudomonas aeruginosa; assay type: functional
[9] = test system: Haemophilus influenzae; test: Antibacterial activity against wild type Haemophilus influenzae incubated for 20 hrs by two-fold serial dilution method; assay type: functional
[10] = test system: Pseudomonas aeruginosa; test: Antibacterial activity against wild type Pseudomonas aeruginosa incubated for 20 hrs by two-fold serial dilution method; assay type: functional
[11] = test system: Staphylococcus aureus; test: Antibacterial activity against methicillin-resistant Staphylococcus aureus incubated for 20 hrs by two-fold serial dilution method; assay type: functional
[12] = test system: Staphylococcus aureus; test: Antibacterial activity against wild type Staphylococcus aureus incubated for 20 hrs by two-fold serial dilution method; assay type: functional
[13] = test system: Moraxella catarrhalis; test: Antibacterial activity against wild type Moraxella catarrhalis incubated for 20 hrs by two-fold serial dilution method; assay type: functional
[14] = test system: Acinetobacter baumannii; test: Antibacterial activity against wild type Acinetobacter baumannii incubated for 20 hrs by two-fold serial dilution method; assay type: functional
[15] = test system: Enterococcus faecium; test: Antibacterial activity against vancomycin-resistant Enterococcus faecium incubated for 20 hrs by two-fold serial dilution method; assay type: functional
[16] = test system: Escherichia coli; test: Antibacterial activity against wild type Escherichia coli incubated for 20 hrs by two-fold serial dilution method; assay type: functional
[17] = test system: Staphylococcus aureus; test: Antibacterial activity against wild type Staphylococcus aureus incubated for 20 hrs in presence of 50% of human serum by two-fold serial dilution method; assay type: functional
[18] = Inhibition of Escherichia coli DNA topoisomerase 4 ATPase activity
[19] = test system: Streptococcus pneumoniae; test: Antibacterial activity against wild type Streptococcus pneumoniae incubated for 20 hrs in presence of 2.5% lysed horse blood by two-fold serial dilution method; assay type: functional
[20] = test system: Enterococcus faecalis; test: Antibacterial activity against wild type Enterococcus faecalis incubated for 20 hrs by two-fold serial dilution method; assay type: functional

| Compound | MIC [1] [µg/mL] | IC50 [2] [µM] | MIC [3] [µg/mL] | IC50 [4] [µM] | IC50 [5] [µM] | MIC [6] [µg/mL] | IC50 [7] [µM] | MIC [8] [µg/mL] | MIC [9] [µg/mL] | MIC [10] [µg/mL] | MIC [11] [µg/mL] | MIC [12] [µg/mL] | MIC [13] [µg/mL] | MIC [14] [µg/mL] | MIC [15] [µg/mL] | MIC [16] [µg/mL] | MIC [17] [µg/mL] | IC50 [18] [µM] | MIC [19] [µg/mL] | MIC [20] [µg/mL] |
| --- | --- | --- | --- | --- | --- | --- | --- | --- | --- | --- | --- | --- | --- | --- | --- | --- | --- | --- | --- | --- |
| Cc1c(O)cc(O)c2c1C(=O)OC[C@H](NC(=O)[C@@H]1[C@H](O)CCN1C(=O)[C@@H](N)CO)C(=O)N[C@H](C(=O)N[C@@H](C)C(=O)O)CSC2 | > 128 | 0.05 | > 128 |  |  |  |  |  |  |  |  |  |  |  |  |  |  |  |  |  |
| CO[C@@H]1[C@@H](OC(=O)c2ccc(C)[nH]2)[C@@H](O)[C@H](Oc2ccc3c(O)c(NC(=O)c4c[nH]c(C(=O)Nc5c(O)c6ccc(O[C@@H]7OC(C)(C)[C@H](OC)[C@@H](OC(=O)c8ccc(C)[nH]8)[C@H]7O)c(C)c6oc5=O)c4C)c(=O)oc3c2C)OC1(C)C | 6.25 (≈ 5.63 µM) | 0.03 | 0.0012 (≈ 0.00108 µM) | 5 | 0.006 | 0.78 | 100 | 12.5 (≈ 11.3 µM) |  |  |  |  |  |  |  |  |  |  |  |  |
| CO[C@@H]1[C@@H](OC(=O)c2ccc(C)[nH]2)[C@@H](O)[C@H](Oc2ccc3c(O)c(NC(=O)c4ccc(O)c(CC=C(C)C)c4)c(=O)oc3c2Cl)OC1(C)C [CHLOROBIOCIN] |  |  | < 0.06 | 3 |  | 2 | 10 |  |  |  |  |  |  |  |  |  |  |  |  |  |
| C[C@H]1COc2c(N3CCN(C)CC3)c(F)cc3c(=O)c(C(=O)O)cn1c23.C[C@H]1COc2c(N3CCN(C)CC3)c(F)cc3c(=O)c(C(=O)O)cn1c23.O [LEVOFLOXACIN] |  |  |  |  |  |  |  |  | < 0.015 | 0.5 | 32 | 0.125 | 1 | 0.125 | 4 | 0.031 |  |  |  |  |
| CO[C@@H]1[C@@H](OC(N)=O)[C@@H](O)[C@H](Oc2ccc3c(O)c(NC(=O)c4ccc(O)c(CC=C(C)C)c4)c(=O)oc3c2C)OC1(C)C [NOVOBIOCIN] |  |  |  | 10 |  |  | 35 |  | 0.12 (≈ 0.196 µM) | 100 (≈ 163 µM) | 0.06 (≈ 0.0979 µM) | 0.25 (≈ 0.408 µM) | > 32 |  |  | > 32 | 16 | 0.45 | 1 | 32 (≈ 52.2 µM) |
